# Assay results from patent US3985779A, “M-phenoxyphenyl propionic acid derivatives and preparation thereof” (Eisai Co., Ltd., priority 1973, dated 1976).
# Where two headings read alike, the source gives them in different places.
# Tested on: yeast-induced pyrexia
# Assay: Antipyretic activity to the yeast-treated rats (Experiment I)
# Format: in vivo, rats (Wistar strain male)
# Conditions: for minimal effective dose: Rattus norvegicus, po
# Experimental: To Wistar strain male rats having about 300 - 350 grs. body weight, an aqueous suspension of yeast was subcutaneously injected to induce pyrexia.
# At the lapse of 4 hours since the dose of the yeast suspension, the compounds under test given in hereinaftermentioned Table 10 in a form of suspension in a 5% gum arabic aqueous solution are orally administered. The rectal temperatures of the rats were measured periodically by means of a thermister-type thermometer sold by Japan Koden K.K. As control, said 5% gum arabic aqueous solution alone was administered.
smiles,measurement,setting,value
"CC(C(=O)O)c1cccc(Oc2ccccc2Cl)c1 (stereo not shown) [Compound (5), 2-[m-(o-chlorophenoxy)phenyl]propionic acid]",body temperature relative to normal (in words),80 and 160 mg/kg p.o.,no body temperatures lower than the normal body temperatures
same,"Change in rectal temperature, mean ± S.E.","1 hr, 1.25 mg/kg p.o.",+0.25 ± 0.09
same,"Change in rectal temperature, mean ± S.E.","1 hr, 5 mg/kg p.o.",-0.15 ± 0.13
same,"Change in rectal temperature, mean ± S.E.","1 hr, 20 mg/kg p.o.",-0.53 ± 0.10
same,"Change in rectal temperature, mean ± S.E.","1 hr, 80 mg/kg p.o.",-0.55 ± 0.13
same,"Change in rectal temperature, mean ± S.E.","1 hr, 160 mg/kg p.o.",-0.48 ± 0.14
same,"Change in rectal temperature, mean ± S.E.","3 hrs, 1.25 mg/kg p.o.",+0.03 ± 0.21
same,"Change in rectal temperature, mean ± S.E.","3 hrs, 5 mg/kg p.o.",-0.30 ± 0.17
same,"Change in rectal temperature, mean ± S.E.","3 hrs, 20 mg/kg p.o.",-0.90 ± 0.10
same,"Change in rectal temperature, mean ± S.E.","3 hrs, 80 mg/kg p.o.",-0.83 ± 0.09
same,"Change in rectal temperature, mean ± S.E.","3 hrs, 160 mg/kg p.o.",-0.90 ± 0.17
same,"Change in rectal temperature, mean ± S.E.","5 hrs, 1.25 mg/kg p.o.",+0.13 ± 0.15
same,"Change in rectal temperature, mean ± S.E.","5 hrs, 5 mg/kg p.o.",-0.25 ± 0.16
same,"Change in rectal temperature, mean ± S.E.","5 hrs, 20 mg/kg p.o.",-0.70 ± 0.27
same,"Change in rectal temperature, mean ± S.E.","5 hrs, 80 mg/kg p.o.",-0.65 ± 0.16
same,"Change in rectal temperature, mean ± S.E.","5 hrs, 160 mg/kg p.o.",-1.03 ± 0.19
same,minimal effective dose,"1 h, p.o., compound (5): at one hour lapse, read-out: dose with significant antipyretic activity",5 mg/kg
same,minimal effective dose,read-out: dose with tendency of an antipyretic activity,1.25 mg/kg
same,dose with maximum antipyretic activity,p.o.,20 mg/kg
